Laboratory results published in PMC11401813, “Grewiifopenes A–K, bioactive clerodane diterpenoids from Casearia grewiifolia Vent” (Natural Products and Bioprospecting, 2024).
≈ marks a conversion by molar mass, not a printed value. Where two headings read alike, the source gives them in different places.

Tests used:
[1] = tested on: MDA-MB-231 (triple negative breast cancer); assay: Cytotoxicity, MTT assay, MDA-MB-231; assay type: cell-based, human; conditions: MTT, mean ± s.d. (n = 3), read-out: IC50, MDA-MB-231
Method: (§1) The in vitro cytotoxicity assay toward a panel of human cancer cell lines of several clerodane diterpenoids has been well investigated. Thus, the isolates in adequate amounts were tested against MOLT-3 (acute lymphoblastic leukemia), HuCCA-1 (cholangiocarcinoma), HepG2 (hepatocellular carcinoma), A549 (lung adenocarcinoma), HeLa (cervical carcinoma), and MDA-MB-231 (triple negative breast cancer) cancer cell lines using the MTT and XTT methods. Doxorubicin and etoposide were used as positive controls.
(§2) The MTT (3-(4,5-dimethylthiazol-2-yl)-2,5-diphenyltetrazolium bromide) assay was employed for the cytotoxic evaluation against five human cancer cell lines, including HepG2, A549, MDA-MB-231, HeLa, and HuCCA-1, while the XTT (2,3-bis-(2-methoxy-4-nitro-5-sulphenyl)-(2H)-tetrazolium-5-carboxanilide) method was used for MOLT-3 cancer cell.

[2] = tested on: A549 (lung adenocarcinoma); assay: Cytotoxicity, MTT assay, A549; assay type: cell-based, human; conditions: mean ± s.d. (n = 3)
Method: as §1, §2

[3] = tested on: HepG2 (hepatocellular carcinoma); assay: Cytotoxicity, MTT assay, HepG2; assay type: cell-based, human; conditions: MTT, mean ± s.d. (n = 3), read-out: IC50, HepG2
Method: as §1, §2

[4] = tested on: HeLa (cervical carcinoma); assay: Cytotoxicity, MTT assay, HeLa; assay type: cell-based, human; conditions: HeLa cell line, MTT, mean ± s.d. (n = 3), read-out: IC50, HeLa
Method: as §1, §2

[5] = tested on: MOLT-3 (acute lymphoblastic leukemia); assay: Cytotoxicity, XTT method, MOLT-3; assay type: cell-based; conditions: Homo sapiens; MOLT-3 cell line; XTT; mean ± s.d. (n = 3); read-out: IC50, MOLT-3
Method: as §1, §2

[6] = tested on: HuCCA-1 (cholangiocarcinoma); assay: Cytotoxicity, MTT assay, HuCCA-1; assay type: cell-based, human; conditions: MTT, mean ± s.d. (n = 3), read-out: IC50, HuCCA-1
Method: as §1, §2

[7] = tested on: Bacillus cereus (ATCC 11778); assay: Antibacterial broth microdilution (MIC/MBC), B. cereus; assay type: cell-based; conditions: Bacillus cereus, ATCC11778
Method: (§3) In addition, the isolates were also evaluated for their antibacterial activity towards three strains including Bacillus cereus (ATCC 11778), Staphylococcus aureus (ATCC 6538) and Staphylococcus epidermidis (ATCC 12228) using penicillin G and gentamicin as the antibiotic controls (Table 5). […] Finally, the inhibitory activity of aromatase by using a CYP19 screening kit was investigated. The aromatase (also called estrogen synthase) is responsible for converting the non-aromatic ring A of androgens to estrogens, which are related to the proliferation of breast cancer cells.
(§4) The tested strains, Staphylococcus aureus (S. aureus) ATCC6538, Staphylococcus epidermidis (S. epidermidis) ATCC12228, and Bacillus cereus (B. cereus) ATCC11778 were obtained from the American Type Culture Collection (ATCC).
(§5) All tested species were grown on Mueller Hinton Agar (MHA) and incubated at 37 °C for 18–24 h. The bacterial colonies suspension in sterile normal saline was diluted until they reached a 1 × 10^6 CFC/mL concentration, which was then compared to the McFarland scale. This step provided a standard bacterial suspension (1 × 10^6 CFU/mL), which was used for the following assays.
(§6) The broth microdilution technique was used for the MIC and MBC determination, which was expressed according to Clinical and Laboratory Standards Institute (CLSI) standard M07 guideline. The compounds were prepared as a stock solution by dissolving in dimethyl sulfoxide (DMSO) with the concentration ranging from 0.195 to 200 µg/mL. DMSO and penicillin G or gentamicin were used as normal and standard drug control. […] Three replicates were performed for each experiment.

[8] = tested on: Staphylococcus aureus (ATCC 6538); assay: Antibacterial broth microdilution (MIC/MBC), S. aureus; assay type: cell-based; conditions: ATCC6538
Method: as §3, §4, §5, §6

[9] = tested on: Staphylococcus epidermidis (ATCC 12228); assay: Antibacterial broth microdilution (MIC/MBC), S. epidermidis; assay type: cell-based; conditions: ATCC12228
Method: as §3, §4, §5, §6

[10] = Homo sapiens, MDA-MB-231, MDA-MB-231 cell line
[11] = Homo sapiens, A549, A549 cell line
[12] = Homo sapiens, HepG2, HepG2 cell line
[13] = Homo sapiens, HuCC-A1, HuCCA-1 cell line

MIC [7] | MIC [8] | MIC [9] | SMILES | IC50 [1, 10] | IC50 [2, 11] | IC50 [3, 12] | IC50 ([4]; Homo sapiens, HeLa) | IC50 [5] | IC50 [6, 13] | MBC [7] | MBC [8] | MBC [9] | IC50 [4] | IC50 ([6]; HuCCA-1 cell line) | IC50 ([1]; MDA-MB-231 cell line) | IC50 ([2]; A549 cell line) | IC50 ([3]; HepG2 cell line)
 |  |  | C=CC(=C)CC[C@]1(C)[C@H](C)[C@@H](OC(=O)/C=C/c2ccc(O)cc2)[C@H](O)[C@@]23C(=C[C@H](OC(=O)CC(C)C)C[C@@H]12)[C@H](OC(C)=O)O[C@H]3OC(C)=O [Compound 14, Grewiifopene G] | 2000 ± 100 nM | 2600 ± 100 nM | 7300 ± 600 nM | 2400 ± 200 nM | 1300 ± 500 nM | 1800 ± 200 nM |  |  |  |  |  |  |  | 
> 200 µg/mL | > 200 µg/mL | > 200 µg/mL | C=CC(C)=CCC1(C)C(C)C(OC(C)=O)C(OC(C)=O)C23C(=CC(OC(=O)CC(C)C)CC12)C(OC(C)=O)OC3OC(C)=O (stereo not shown) [Compound 15, Grewiifopene H] | 9100 ± 300 nM | 9200 ± 1200 nM | 38500 ± 2800 nM | 8800 ± 600 nM | 3100 ± 400 nM | 6600 ± 600 nM | > 200 µg/mL | > 200 µg/mL | > 200 µg/mL |  |  |  |  | 
 |  |  | C=CC(C)=CCC1(C)C(C)C(OC(=O)C=Cc2ccc(O)cc2)C(O)C23C(=CC(OC(=O)CC(C)C)CC12)C(OC(C)=O)OC3OC(C)=O (stereo not shown) [Compound 17, Grewiifopene J] | 2000 ± 100 nM | 2400 ± 200 nM | 7100 ± 200 nM |  | 1000 ± 100 nM |  |  |  |  | 2800 ± 30 nM | 400 ± 30 nM |  |  | 
 |  |  | C=CC(C)=CCC1(C)C(C)C(OC(=O)C=Cc2ccc(O)cc2)C(O)C23C(=CC(OC(=O)CC(C)C)CC12)C(OC(C)=O)OC3OC(C)=O (stereo not shown) [Compound 18, Grewiifopene K] |  |  |  |  |  |  |  |  |  | 6100 ± 300 nM | 1600 ± 200 nM | 2500 ± 100 nM | 2200 ± 200 nM | 8900 ± 1200 nM
 |  |  | COc1cccc2c1C(=O)c1c(O)c3c(c(O)c1C2=O)C[C@@](O)(C(=O)CO)C[C@@H]3O[C@H]1C[C@H](N)[C@H](O)[C@H](C)O1 [Doxorubicin, reference compound] | 2090 ± 100 nM | 380 ± 20 nM | 520 ± 100 nM | 320 ± 10 nM | 10 ± 2 nM | 830 ± 70 nM |  |  |  |  |  |  |  | 
 |  |  | COc1cc([C@@H]2c3cc4c(cc3[C@@H](O[C@@H]3O[C@@H]5CO[C@@H](C)O[C@H]5[C@H](O)[C@H]3O)[C@H]3COC(=O)[C@H]23)OCO4)cc(OC)c1O [Etoposide, reference compound] |  |  | 33500 ± 2550 nM |  | 22 ± 4 nM |  |  |  |  |  |  |  |  | 
0.048 µg/mL (≈ 0.101 µM) | 0.024 µg/mL (≈ 0.0503 µM) | 0.024 µg/mL (≈ 0.0503 µM) | CNC(C)C1CCC(N)C(OC2C(N)CC(N)C(OC3OCC(C)(O)C(NC)C3O)C2O)O1 (stereo not shown) [Gentamicin, reference compound] |  |  |  |  |  |  | 0.048 µg/mL (≈ 0.101 µM) | 0.024 µg/mL (≈ 0.0503 µM) | 0.024 µg/mL (≈ 0.0503 µM) |  |  |  |  | 
3.12 µg/mL (≈ 9.35 µM) | 0.00076 µg/mL (≈ 0.00227 µM) | 0.195 µg/mL (≈ 0.583 µM) | CC1(C)S[C@@H]2[C@H](NC(=O)Cc3ccccc3)C(=O)N2[C@H]1C(=O)O [Penicillin G, reference compound] |  |  |  |  |  |  | 3.12 µg/mL (≈ 9.35 µM) | 0.003 µg/mL (≈ 0.00897 µM) | 1.56 µg/mL (≈ 4.67 µM) |  |  |  |  | 
